Results from US20220289708A1, “SUBSTITUTED N-PHENYL URACILS, SALTS THEREOF AND THEIR USE AS HERBICIDAL AGENTS” (Bayer Aktiengesellschaft, priority 2019, published 2022).

Key:
Test in all cases: Post-emergence herbicidal action
Assay type in all cases: in vivo
Polygonum convolvulus = conditions: application rate 20 g/ha
Description: (§1) a. Post-Emergence Herbicidal Action and Crop Plant Compatibility Seeds of monocotyledonous and dicotyledonous weeds and crop plants were placed in sandy loam in plastic or wood-fiber pots, covered with soil and cultivated in a greenhouse under controlled growth conditions. 2 to 3 weeks after sowing, the test plants were treated at the one-leaf stage. The compounds of the invention, formulated in the form of wettable powders (WP) or as emulsion concentrates (EC), were then sprayed onto the green parts of the plants as aqueous suspension or emulsion with addition of 0.5% additive at a water application rate of 600 l/ha (converted). After the test plants had been kept in the greenhouse under optimum growth conditions for about 3 weeks, the activity of the preparations was rated visually in comparison to untreated controls. For example, 100% activity=the plants have died, 0% activity=like control plants. Tables A1 to A15 below show the effects of selected compounds of the general formula (I) according to Tables I.1 to I.36 on various harmful plants and at an application rate corresponding to 20 g/ha and less, which were obtained by the experimental procedure mentioned above.

Veronica persica = conditions: application rate 20 g/ha
Description: as §1

Pharbitis purpurea = conditions: application rate 20 g/ha, rated visually after about 3 weeks vs untreated controls
Description: as §1

Abutilon theophrasti = conditions: application rate 20 g/ha, rated visually after about 3 weeks vs untreated controls
Description: as §1

Digitaria sanguinalis = conditions: application rate 20 g/ha, rated visually after about 3 weeks vs untreated controls
Description: as §1

Amaranthus retroflexus = conditions: application rate 20 g/ha, rated visually after about 3 weeks vs untreated controls
Description: as §1

Lolium rigidum = conditions: application rate 20 g/ha, rated visually after about 3 weeks vs untreated controls
Description: as §1

Alopecurus myosuroides = conditions: application rate 20 g/ha, rated visually after about 3 weeks vs untreated controls
Description: as §1

Matricaria inodora = conditions: application rate 20 g/ha, rated visually after about 3 weeks vs untreated controls
Description: as §1

Viola tricolor = conditions: application rate 20 g/ha
Description: as §1

Avena fatua = conditions: application rate 20 g/ha, rated visually after about 3 weeks vs untreated controls
Description: as §1

Setaria viridis = conditions: application rate 20 g/ha, rated visually after about 3 weeks vs untreated controls
Description: as §1

Echinochloa crus-galli = conditions: application rate 20 g/ha, rated visually after about 3 weeks vs untreated controls
Description: as §1

Compound	Polygonum convolvulus (efficacy in %) (Polygonum convolvulus)	Veronica persica (efficacy in %) (Veronica persica)	Pharbitis purpurea (efficacy in %) (Pharbitis purpurea)	Abutilon theophrasti (efficacy in %) (Abutilon theophrasti)	Digitaria sanguinalis (efficacy in %) (Digitaria sanguinalis)	Amaranthus retroflexus (efficacy in %) (Amaranthus retroflexus)	Lolium rigidum (efficacy in %) (Lolium rigidum)	Alopecurus myosuroides (efficacy in %) (Alopecurus myosuroides)	Matricaria inodora (efficacy in %) (Matricaria inodora)	Viola tricolor (efficacy in %) (Viola tricolor)	Avena fatua (efficacy in %) (Avena fatua)	Setaria viridis (efficacy in %) (Setaria viridis)	Echinochloa crus-galli (efficacy in %) (Echinochloa crus-galli)
CCOCCOC(=O)COc1ncccc1Oc1cc(-n2c(=O)cc(C(F)(F)F)n(C)c2=O)c(F)cc1Cl [I.15-2]	100%	100%	100%	100%	100%	100%	90%	100%	100%	100%	90%	100%	100%
Cc1nn(C)cc1COC(=O)COc1ncccc1Oc1cc(-n2c(=O)cc(C(F)(F)F)n(C)c2=O)c(F)cc1Cl [I.15-366]	–	100%	100%	100%	100%	100%	90%	100%	100%	100%	90%	100%	100%
Cc1c(COC(=O)COc2ncccc2Oc2cc(-n3c(=O)cc(C(F)(F)F)n(C)c3=O)c(F)cc2Cl)cnn1C [I.15-367]	–	100%	100%	100%	100%	100%	80%	100%	100%	100%	90%	100%	100%
CCn1cc(COC(=O)COc2ncccc2Oc2cc(-n3c(=O)cc(C(F)(F)F)n(C)c3=O)c(F)cc2Cl)c(C)n1 [I.15-368]	–	100%	100%	100%	100%	100%	90%	100%	100%	100%	100%	100%	100%
COCCOCCOC(=O)COc1ncccc1Oc1cc(-n2c(=O)cc(C(F)(F)F)n(C)c2=O)c(F)cc1C#N [I.35-23]	–	100%	100%	100%	100%	100%	–	100%	100%	100%	90%	100%	100%
COCCOCCOC(=O)COc1ncc(F)cc1Oc1cc(-n2c(=O)cc(C(F)(F)F)n(C)c2=O)c(F)cc1Cl [I.36-23]	90%	100%	100%	100%	100%	100%	90%	100%	100%	100%	–	100%	100%
